# Data as given in PMC6572064, “Discovery of 2-(1-(3-(4-Chloroxyphenyl)-3-oxo- propyl)pyrrolidine-3-yl)-1H-benzo[d]imidazole-4-carboxamide: A Potent Poly(ADP-ribose) Polymerase (PARP) Inhibitor for Treatment of Cancer” (Molecules, 2019).
# Read-outs that look alike come from different tables or passages of the source.
# Columns and labels:
# [1] = test system: MDA-MB-436 (a BRCA-1-mutated breast cancer cell line); test: Cell proliferation assay, three-day, CellTiter-Glo, MDA-MB-436; assay type: cell-based; details: for inhibition at 0.00508 µM / inhibition at 0.0152 µM / inhibition at 0.0457 µM / inhibition at 0.41 µM / inhibition at 1.23 µM / inhibition at 3.7 µM / inhibition at 11.11 µM / inhibition at 33.33 µM / inhibition at 100 µM / IC50: Homo sapiens; for inhibition at 0.00508 µM: MDA-MB-436, MDA-MB-436, Conc. 0.00508 uM; for inhibition at 0.0152 µM: MDA-MB-436, MDA-MB-436, Conc. 0.0152 uM; for inhibition at 0.0457 µM: MDA-MB-436, MDA-MB-436, Conc. 0.0457 uM; for inhibition at 0.41 µM: MDA-MB-436, MDA-MB-436, Conc. 0.41 uM; for inhibition at 1.23 µM: MDA-MB-436, MDA-MB-436, Conc. 1.23 uM; for inhibition at 3.7 µM: MDA-MB-436, MDA-MB-436, Conc. 3.70 uM; for inhibition at 11.11 µM: MDA-MB-436, MDA-MB-436, Conc. 11.11 uM; for inhibition at 33.33 µM: MDA-MB-436, MDA-MB-436, Conc. 33.33 uM; for inhibition at 100 µM: MDA-MB-436, MDA-MB-436, Conc. 100.00 uM
# How it was run: (§1)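 Cells seeded overnight in 384-well plates, then exposed to compounds (DMSO stock diluted in medium) for 72 h at 37 °C, 5% CO2. Viability read as CellTiter-Glo luminescence after 60 min at room temperature.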
# [2] = test system: CAPAN-1 (a BRCA-2-mutated pancreatic cancer cell line); test: Cell proliferation assay, three-day, CellTiter-Glo, CAPAN-1; assay type: cell-based; details: for IC50 / inhibition at 0.00508 µM / inhibition at 0.0152 µM / inhibition at 0.0457 µM / inhibition at […] / inhibition at 0.41 µM / inhibition at 1.23 µM / inhibition at 3.7 µM / inhibition at 11.11 µM / inhibition at 33.33 µM / inhibition at 100 µM: Homo sapiens; for inhibition at 0.00508 µM: CAPAN-1, Conc. 0.00508 uM; for inhibition at 0.0152 µM: CAPAN-1, Conc. 0.0152 uM; for inhibition at 0.0457 µM: CAPAN-1, Conc. 0.0457 uM; for inhibition at […]: CAPAN-1, Conc. 0.14 uM; for inhibition at 0.41 µM: CAPAN-1, Conc. 0.41 uM; for inhibition at 1.23 µM: CAPAN-1, Conc. 1.23 uM; for inhibition at 3.7 µM: CAPAN-1, Conc. 3.70 uM; for inhibition at 11.11 µM: CAPAN-1, Conc. 11.11 uM; for inhibition at 33.33 µM: CAPAN-1, Conc. 33.33 uM; for inhibition at 100 µM: CAPAN-1, Conc. 100.00 uM
# How it was run: as §1
# PARP-2 = molecular target: T1, PARP-2 (Homo sapiens, UniProt Q9UGN5); test: PARP-2 inhibition assay (PARP-2 Chemiluminescent Assay Kit, BPS Bioscience); assay type: biochemical; details: for inhibition at 0.01 µM: 10 nM compound
# T1 construct: purchased BPS Bioscience 80552
# Method: (§2) The PARP-1 and PARP-2 inhibition assays were performed in outsourcing, by a CRO company, Shanghai Medicilon Inc. (Shanghai, China). […] Briefly, PARP-1 or PARP-2 biotinylated substrate was incubated with compounds or solvent control at varying concentrations and an assay buffer containing the PARP-1 or PARP-2 enzyme.
# PARP-1 = molecular target: T2, PARP-1 (Homo sapiens, UniProt P09874); test: PARP-1 inhibition assay (PARP-1 Chemiluminescent Assay Kit, BPS Bioscience); assay type: biochemical; details: for inhibition at 0.01 µM: 10 nM compound
# T2 construct: purchased BPS Bioscience 80569
# Method: as §2
# T2 sequence (P09874 whole entry): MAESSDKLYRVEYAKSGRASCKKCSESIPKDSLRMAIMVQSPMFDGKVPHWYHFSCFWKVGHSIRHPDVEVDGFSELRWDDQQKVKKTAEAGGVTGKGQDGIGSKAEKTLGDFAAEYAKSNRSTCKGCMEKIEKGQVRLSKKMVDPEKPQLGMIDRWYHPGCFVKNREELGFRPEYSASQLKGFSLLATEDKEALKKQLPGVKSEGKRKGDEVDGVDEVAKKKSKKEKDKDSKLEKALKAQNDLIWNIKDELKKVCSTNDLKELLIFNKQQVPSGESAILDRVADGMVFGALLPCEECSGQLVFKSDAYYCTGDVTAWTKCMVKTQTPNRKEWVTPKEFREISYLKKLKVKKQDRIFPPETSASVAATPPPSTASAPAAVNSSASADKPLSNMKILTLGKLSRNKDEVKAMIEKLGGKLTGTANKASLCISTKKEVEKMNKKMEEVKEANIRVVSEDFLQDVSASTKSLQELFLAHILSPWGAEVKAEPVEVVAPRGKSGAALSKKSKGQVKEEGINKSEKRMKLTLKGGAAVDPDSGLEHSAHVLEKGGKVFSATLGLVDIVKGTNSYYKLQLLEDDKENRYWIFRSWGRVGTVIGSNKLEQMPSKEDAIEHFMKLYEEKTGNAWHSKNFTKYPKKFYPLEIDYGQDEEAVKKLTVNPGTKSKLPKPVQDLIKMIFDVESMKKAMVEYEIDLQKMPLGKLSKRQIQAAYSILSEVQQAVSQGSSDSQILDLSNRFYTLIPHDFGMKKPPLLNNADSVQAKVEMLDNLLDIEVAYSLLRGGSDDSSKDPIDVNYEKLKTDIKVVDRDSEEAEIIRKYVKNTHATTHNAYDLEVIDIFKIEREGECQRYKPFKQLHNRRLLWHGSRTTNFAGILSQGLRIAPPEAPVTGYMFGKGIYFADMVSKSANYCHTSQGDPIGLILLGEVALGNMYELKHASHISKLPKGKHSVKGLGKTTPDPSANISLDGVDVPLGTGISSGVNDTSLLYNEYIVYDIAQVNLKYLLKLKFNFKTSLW
# T1 sequence (Q9UGN5 whole entry): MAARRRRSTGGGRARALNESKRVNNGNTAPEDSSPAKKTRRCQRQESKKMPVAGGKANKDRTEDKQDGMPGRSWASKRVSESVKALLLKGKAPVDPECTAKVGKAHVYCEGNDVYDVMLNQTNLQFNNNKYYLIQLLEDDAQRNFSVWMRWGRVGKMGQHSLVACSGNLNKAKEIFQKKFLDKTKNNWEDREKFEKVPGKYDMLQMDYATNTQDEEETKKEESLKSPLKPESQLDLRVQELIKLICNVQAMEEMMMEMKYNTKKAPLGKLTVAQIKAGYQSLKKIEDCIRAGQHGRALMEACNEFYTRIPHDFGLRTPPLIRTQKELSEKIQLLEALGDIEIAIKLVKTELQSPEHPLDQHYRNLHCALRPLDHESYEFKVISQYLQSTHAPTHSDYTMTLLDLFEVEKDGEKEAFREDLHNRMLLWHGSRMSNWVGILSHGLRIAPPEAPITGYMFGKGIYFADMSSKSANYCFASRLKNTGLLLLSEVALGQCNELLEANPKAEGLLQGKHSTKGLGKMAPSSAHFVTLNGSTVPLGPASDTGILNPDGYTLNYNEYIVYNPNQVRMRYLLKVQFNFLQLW
smiles,measurement,setting,value
"NC(=O)c1cccc2[nH]c(C3CCN(CCC(=O)c4ccccc4)C3)nc12 (centres unmarked) [Compound 5cp, 2-(1-(3-Oxo-3-phenylpropyl)pyrrolidin-3-yl)-1H-benzo[d]imidazole-4-carboxamide]",inhibition at 0.00508 µM,"[1]; replicate 1, read-out: Inh % 1",-1.4%
same,inhibition at 0.00508 µM,"[1]; replicate 2, read-out: Inh % 2",-0.3%
same,inhibition at 0.0152 µM,"[1]; replicate 1, read-out: Inh % 1",-1.8%
same,inhibition at 0.0152 µM,"[1]; replicate 2, read-out: Inh % 2",-8.4%
same,inhibition at 0.0457 µM,"[1]; replicate 1, read-out: Inh % 1",-13.1%
same,inhibition at 0.0457 µM,"[1]; replicate 2, read-out: Inh % 2",-7%
same,inhibition at 0.41 µM,"[1]; replicate 1, read-out: Inh % 1",-6.8%
same,inhibition at 0.41 µM,"[1]; replicate 2, read-out: Inh % 2",-9.9%
same,inhibition at 1.23 µM,"[1]; replicate 1, read-out: Inh % 1",-10%
same,inhibition at 1.23 µM,"[1]; replicate 2, read-out: Inh % 2",-7.6%
same,inhibition at 3.7 µM,"[1]; replicate 1, read-out: Inh % 1",-1.8%
same,inhibition at 3.7 µM,"[1]; replicate 2, read-out: Inh % 2",-0.0749%
same,inhibition at 11.11 µM,"[1]; replicate 1, read-out: Inh % 1",7.8%
same,inhibition at 11.11 µM,"[1]; replicate 2, read-out: Inh % 2",4.7%
same,inhibition at 33.33 µM,"[1]; replicate 1, read-out: Inh % 1",91.6%
same,inhibition at 33.33 µM,"[1]; replicate 2, read-out: Inh % 2",79.7%
same,inhibition at 100 µM,"[1]; replicate 1, read-out: Inh % 1",99.8%
same,inhibition at 100 µM,"[1]; replicate 2, read-out: Inh % 2",99.4%
same,IC50,"[1]; MDA-MB-436, 72 h, CellTiter-Glo, read-out: MDA-MB-436 IC50",19.8 µM
same,IC50,"[1]; MDA-MB-436, 72 h, supplement Summary sheet, read-out: IC50",19.8 µM
same,IC50,"[1]; MDA-MB-436, curve-fit parameter list, concentrations in uM, read-out: IC50",19.8 µM
same,LogIC50,"[1]; MDA-MB-436, curve-fit parameter list, Log (uM)",1.296
same,Inh % 1,"[2]; CAPAN-1, Conc. printed as #REF!, replicate 1",18.8%
same,Inh % 2,"[2]; CAPAN-1, Conc. printed as #REF!, replicate 2",21.3%
same,LogIC50,"[2]; CAPAN-1, curve-fit output, concentration axis Log (uM)",1.19
same,IC50,"[2]; CAPAN-1, 72 h, CellTiter-Glo, read-out: CAPAN-1 IC50",15.5 µM
same,IC50,"[2]; CAPAN-1, 72 h, supplement Summary sheet, read-out: IC50",15.5 µM
same,inhibition at 0.00508 µM,"[2]; replicate 1, read-out: Inh % 1",-4.4%
same,inhibition at 0.00508 µM,"[2]; replicate 2, read-out: Inh % 2",-9.4%
same,inhibition at 0.0152 µM,"[2]; replicate 1, read-out: Inh % 1",3.3%
same,inhibition at 0.0152 µM,"[2]; replicate 2, read-out: Inh % 2",-2.6%
same,inhibition at 0.0457 µM,"[2]; replicate 1, read-out: Inh % 1",0.846%
same,inhibition at 0.0457 µM,"[2]; replicate 2, read-out: Inh % 2",-4.3%
same,inhibition at […],"[2]; replicate 1, read-out: Inh % 1",4.9%
same,inhibition at […],"[2]; replicate 2, read-out: Inh % 2",-2.2%
same,inhibition at 0.41 µM,"[2]; replicate 1, read-out: Inh % 1",-7.8%
same,inhibition at 0.41 µM,"[2]; replicate 2, read-out: Inh % 2",-11.6%
same,inhibition at 1.23 µM,"[2]; replicate 1, read-out: Inh % 1",17.2%
same,inhibition at 1.23 µM,"[2]; replicate 2, read-out: Inh % 2",-4.7%
same,inhibition at 3.7 µM,"[2]; replicate 1, read-out: Inh % 1",-2.4%
same,inhibition at 3.7 µM,"[2]; replicate 2, read-out: Inh % 2",-0.7%
same,inhibition at 11.11 µM,"[2]; replicate 1, read-out: Inh % 1",18.7%
same,inhibition at 11.11 µM,"[2]; replicate 2, read-out: Inh % 2",8.5%
same,inhibition at 33.33 µM,"[2]; replicate 1, read-out: Inh % 1",98.2%
same,inhibition at 33.33 µM,"[2]; replicate 2, read-out: Inh % 2",97.2%
same,inhibition at 100 µM,"[2]; replicate 1, read-out: Inh % 1",99.7%
same,inhibition at 100 µM,"[2]; replicate 2, read-out: Inh % 2",99.1%
same,IC50,"[2]; CAPAN-1, curve-fit output, concentration axis Log (uM), read-out: IC50",15.5 µM
same,inhibition at 0.01 µM,"PARP-2; supplement sheet, read-out: 10 nM inhibition% PAPR-2",76.8%
same,inhibition at 0.01 µM,PARP-2; read-out: PARP-2 Inhibition % (10 nM),76.7%
same,IC50,PARP-2; read-out: PARP-2 IC50,0.0032 µM
same,IC50,"PARP-2; supplement sheet, read-out: IC50 PAPR-2",0.00315 µM
same,inhibition at 0.01 µM,"PARP-1; supplement sheet, read-out: 10 nM inhibition% PAPR-1",68%
same,inhibition at 0.01 µM,PARP-1; read-out: PARP-1 Inhibition % (10 nM),68%
same,IC50,PARP-1; read-out: PARP-1 IC50,0.0036 µM
same,IC50,"PARP-1; supplement sheet, read-out: IC50 PAPR-1",0.00364 µM
